PMC6278281, “Rosmarinic Acid Derivatives’ Inhibition of Glycogen Synthase Kinase-3β Is the Pharmacological Basis of Kangen-Karyu in Alzheimer’s Disease” (Molecules, 2018)
Where “and” joins values, the source holds several entries; their conditions need not be identical. Equal entries are not always repeated. Where two headings read alike, the source gives them in different places.

Assays:
[1] = target: Glycogen synthase kinase 3β; conditions: cited from earlier work; for Inhibition Mode / IC50: reference controls; for IC50: read-out: IC50, GSK-3β inhibition
human recombinant GSK-3β [2] = target: T1, human recombinant GSK-3β (Homo sapiens, UniProt P49841); test: GSK-3β enzyme inhibition assay (Kinase-Glo luminescent kinase assay); format: biochemical; conditions: pure compounds, mean ± SEM of triplicate experiments
T1 construct: purchased ProSpec-Tany TechnoGene Ltd., Ness-Ziona, Israel
Description: The enzymatic inhibition of GSK-3β in vitro was evaluated with human recombinant GSK-3β by using a Kinase-Glo reagent kit, according to Baki et al. [52] with a slight modification. The kinase reaction was performed in 384-well black plates. Test concentrations were prepared through serial dilution by using an assay buffer (pH 7.5) containing 50 mM HEPES, 1 mM EDTA, 1 mM EGTA, and 15 mM magnesium acetate. To initiate the reaction, 5 µL of sample, 5 µL of ATP (1 µM final concentration), 5 µL of 50 µM GSM, and 5 µL of 20 ng GSK-3β were mixed simultaneously in each well (the final DMSO concentration in the reaction mixture was less than 5%). Test samples were replaced by 5 µL of either buffer or luteolin to produce positive control (maximum activity) and negative control (total inhibition) samples. The reaction mixture was incubated at 37 °C for 30 min and was followed by the addition of the 20-µL Kinase-Glo reagent to stop the reaction. Glow-type luminescence was recorded after 10 min. The activity was proportional to the difference between total and consumed ATP. Inhibition activities were calculated on the basis of maximal activity, measured in the absence of the inhibitor, and the maximal inhibition was measured in the presence of the reference compound.

PC12 cells = system: PC12 cells; set-up: method as in PMID 19101570; conditions: 20 µg/mL; cited from earlier work
BACE1 = system: BACE1; set-up: method as in PMID 29679864; conditions: cited from earlier work
SH-SY5Y-APPsw cells = system: SH-SY5Y-APPsw cells; set-up: method as in PMID 27258307; conditions: by modulating BACE1 activity; cited from earlier work
[3] = set-up: method as in PMID 21903108; conditions: induced by scopolamine or Aβ25–35; cited from earlier work
[4] = set-up: method as in PMID 15484228, PMID 16905282; conditions: oral administration; cited from earlier work
human recombinant GSK-3β [5] = target: T1, human recombinant GSK-3β; test: GSK-3β enzyme kinetics (Lineweaver–Burk and secondary plots, varying ATP or GSM substrate); format: biochemical; conditions: for Ki: from secondary plots; for Inhibition Mode: Lineweaver–Burk plots
Description: The mode of GSK-3β enzyme inhibition by Sal B was characterized via kinetic study by using various concentrations of GSM substrate and ATP. Lineweaver–Burk plots showing reciprocal rates versus reciprocal GSM substrate/ATP concentrations (Figure 3) were deployed to explore the GSK-3β inhibition mechanism.
The GSK-3β enzyme kinetics was evaluated by using the assay method described in Section 4.4 with varying concentrations of ATP (2 µM, 1 µM, or 0.5 µM) or substrate (50 µM, 25 µM, or 12.5 µM). A Lineweaver–Burk plot was prepared by using double reciprocal plots of enzyme kinetic data. Ki values were calculated from the secondary plots.

[6] = set-up: method as in PMID 29027831; conditions: nasal administration in rats, cited from earlier work
[7] = system: induced pluripotent stem cells (iPSCs); set-up: method as in PMID 29421539; conditions: via the AKT/GSK-3β signaling pathway; cited from earlier work
[8] = read-out: IC50 (Mean ± SEM), GSK-3β inhibition
[9] = IC50 (Mean ± SEM), GSK-3β inhibition

T1 sequence (P49841 whole entry): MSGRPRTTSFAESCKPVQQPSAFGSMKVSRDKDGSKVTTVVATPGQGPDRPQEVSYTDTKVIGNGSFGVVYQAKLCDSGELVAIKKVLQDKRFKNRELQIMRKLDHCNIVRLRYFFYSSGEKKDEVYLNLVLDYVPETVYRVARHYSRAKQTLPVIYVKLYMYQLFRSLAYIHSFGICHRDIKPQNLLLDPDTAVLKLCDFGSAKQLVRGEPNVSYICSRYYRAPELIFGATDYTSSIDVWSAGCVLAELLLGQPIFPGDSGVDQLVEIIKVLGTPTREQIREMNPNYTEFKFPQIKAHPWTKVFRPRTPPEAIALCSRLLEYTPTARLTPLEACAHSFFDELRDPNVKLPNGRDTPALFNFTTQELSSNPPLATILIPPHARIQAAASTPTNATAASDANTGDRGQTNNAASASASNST

Row | IC50 (human recombinant GSK-3β [2]; [8]) | SMILES | Inhibition Mode [1] | IC50 [1] [µM] | BACE1 inhibitory activity (BACE1) | further results
1 | – | COc1ccc(CNC(=O)Nc2ncc([N+](=O)[O-])s2)cc1 [AR-A014418] | ATP-competitive [30] | 0.1 | – | Ki ([1]; reference control): 0.03 µM
2 | – | O=C1Cc2c([nH]c3ccc([N+](=O)[O-])cc23)-c2ccccc2N1 [Alsterpaullone] | ATP-competitive [31] | 0.004 | – | –
3 | 425 ± 7.61 µM | O=C(O)/C=C/c1ccc(O)c(O)c1 [Caffeic acid] | – | – | – | phosphorylation of GSK-3β and tau protein (PC12 cells): decreases the phosphorylation of GSK-3β and tau protein
4 | – | O=C1Nc2ccccc2/C1=C1/Nc2ccccc2C1=O [Indirubin] | ATP-competitive [32] | 0.6 | – | –
5 | – | O=c1cc(-c2ccc(O)c(O)c2)oc2cc(O)cc(O)c12 [Luteolin, reference compound] | – | – | – | IC50 (human recombinant GSK-3β [2]; [9]): 2.18 ± 0.13 µM
6 | ~30 µM and 33.1 µM | O=C(/C=C/c1ccc(O)c2c1[C@H](C(=O)O[C@H](Cc1ccc(O)c(O)c1)C(=O)O)[C@@H](c1ccc(O)c(O)c1)O2)O[C@H](Cc1ccc(O)c(O)c1)C(=O)O [Magnesium lithospermate B] | – | – | potent activity | –
7 | ~30 µM and 30.2 µM | O=C(/C=C/c1ccc(O)c(O)c1/C=C/c1ccc(O)c(O)c1)O[C@H](Cc1ccc(O)c(O)c1)C(=O)O [Salvianolic acid A] | – | – | potent activity | –
8 | – | O=C(C=Cc1ccc(O)c2c1C(C(=O)OC(Cc1ccc(O)c(O)c1)C(=O)O)C(c1ccc(O)c(O)c1)O2)OC(Cc1ccc(O)c(O)c1)C(=O)O (stereo not drawn) [Salvianolic acid B] | – | – | – | Aβ generation (SH-SY5Y-APPsw cells): inhibited Aβ generation; cognitive impairments [3]: reverses cognitive impairments; IC50 (human recombinant GSK-3β [2]; [9]): 6.97 ± 0.96 µM; time to maximum plasma concentration [4]: 0.5 to 1 h; time traceable after administration [4]: up to 180 min; Ki (human recombinant GSK-3β [5]; ATP-competitive inhibition, constant GSM substrate (25 μM), varying ATP (0.5, 1, 2 μM)): 5.44 µM; Ki (human recombinant GSK-3β [5]; muscle glycogen synthase (GSM)-competitive inhibition, constant ATP (1 μM), varying GSM substrate (12.5, 25, 50 μM)): 6.32 µM; Inhibition Mode (human recombinant GSK-3β [5]): ATP-competitive; Inhibition Mode (human recombinant GSK-3β [5]; listed as Sal B): ATP-competitive and GSM substrate–competitive; brain-targeting efficacy ([6]; compared to intravenous and oral administration): 5.54; bioavailability [6]: 43.98%; proliferation and differentiation into neurons of iPSCs [7]: potently improved
9 | ~30 µM and 31.8 µM | O=C(/C=C/c1ccc(O)c2oc(-c3ccc(O)c(O)c3)cc12)O[C@H](Cc1ccc(O)c(O)c1)C(=O)O [Salvianolic acid C] | – | – | potent activity | –

Row | SMILES | IC50 (human recombinant GSK-3β [2]; [8]) | Inhibition Mode [1] | IC50 [1] [µM] | BACE1 inhibitory activity (BACE1) | further results
10 | O=C(/C=C/c1ccc(O)c(O)c1)O[C@H](Cc1ccc(O)c(O)c1)C(=O)O [Rosmarinic acid] | 135 ± 4.69 µM | – | – | potent activity | –
